From US11661403B2, “Oxadiazole compounds” (Vivace Therapeutics, Inc., priority 2018, dated 2023)

What follows are molecules tested on 8XTBD luciferase reporter (YAP) in HEK293T cells (assay: YAP Reporter Assay). Conditions: Homo sapiens, HEK-293T, 24 h, read-out: Firefly Luciferase IC50 (μM).
Assay type: cell-based

Row | Compound | IC50
1 | CCOC(=O)C(O)(C(=O)OCC)c1nnc(-c2ccccc2Nc2ccc(C(F)(F)F)cc2)o1 [Compound 200, diethyl 2-hydroxy-2-(5-(2-((4-(trifluoromethyl)phenyl)amino)phenyl)-1,3,4-oxadiazol-2-yl)malonate] | 0.1 to 1 µM
2 | O=C1N[C@@H](c2nnc(-c3ccccc3Nc3ccc(C(F)(F)F)cc3)o2)CO1 [Compound 77, (R)-4-(5-(2-((4-(trifluoromethyl)phenyl)amino)phenyl)-1,3,4-oxadiazol-2-yl)oxazolidin-2-one] | < 0.1 µM

Same assay, conditions: Homo sapiens, HEK-293T; HEK293T cells stably transfected with 8XTBD luciferase reporter and pRLTK; 24-hr incubation; top concentration 3 μM; read-out: Firefly Luciferase IC50

Row | Compound | IC50
3 | CNC(=O)c1nnc(-c2ccccc2Nc2ccc(C(F)(F)F)cc2)o1 [Compound 198, N-methyl-5-(2-((4-(trifluoromethyl)phenyl)amino)phenyl)-1,3,4-oxadiazole-2-carboxamide] | < 0.1 µM
4 | N#CCCc1nnc(-c2ccccc2Nc2ccc(C(F)(F)F)cc2)o1 [Compound 126, 3-(5-(2-((4-(trifluoromethyl)phenyl)amino)phenyl)-1,3,4-oxadiazol-2-yl)propanenitrile] | 0.1 to 1 µM
5 | Cc1ccc(S(=O)(=O)OC(c2nnc(-c3ccccc3Nc3ccc(C(F)(F)F)cc3)o2)C(F)(F)F)cc1 (centres unmarked) [Compound 46, 2,2,2-trifluoro-1-(5-(2-((4-(trifluoromethyl)phenyl)amino)phenyl)-1,3,4-oxadiazol-2-yl)ethyl 4-methylbenzenesulfonate] | 0.1 to 1 µM
6 | OC1(c2nnc(-c3ccccc3Nc3ccc(C(F)(F)F)cc3)o2)CCOC1 (centres unmarked) [Compound 56, 3-(5-(2-((4-(trifluoromethyl)phenyl)amino)phenyl)-1,3,4-oxadiazol-2-yl)tetra hydrofuran-3-ol] | < 0.1 µM
7 | CCOC(=O)CN(C)c1nnc(-c2ccccc2Nc2ccc(C(F)(F)F)cc2)o1 [Compound 11, ethyl N-methyl-N-(5-(2-((4-(trifluoromethyl)phenyl)amino)phenyl)-1,3,4-oxadiazol-2-yl)glycinate] | 0.1 to 1 µM
8 | C#CCOc1nnc(-c2ccccc2Nc2ccc(C(F)(F)F)cc2)o1 [Compound 83, 2-(5-(prop-2-yn-1-yloxy)-1,3,4-oxadiazol-2-yl)-N-(4-(trifluoromethyl)phenyl)aniline] | < 0.1 µM
9 | C[C@]1(c2nnc(-c3ccccc3Nc3ccc(C(F)(F)F)cc3)o2)CCNC1=O [Compound 76, (R)-3-methyl-3-(5-(2-((4-(trifluoromethyl)phenyl)amino)phenyl)-1,3,4-oxadiazol-2-yl)pyrrolidin-2-one] | < 0.1 µM
10 | C#CC(C)Oc1nnc(-c2ccccc2Nc2ccc(C(F)(F)F)cc2)o1 (centres unmarked) [Compound 69, 2-(5-(but-3-yn-2-yloxy)-1,3,4-oxadiazol-2-yl)-N-(4-(trifluoromethyl)phenyl)aniline] | < 0.1 µM
11 | CCc1nnc(-c2ccccc2Nc2ccc(C(F)(F)F)cc2)o1 [Compound 90, 2-(5-ethyl-1,3,4-oxadiazol-2-yl)-N-(4-(trifluoromethyl)phenyl)aniline] | 0.1 to 1 µM
12 | O=C1NCC(c2nnc(-c3ccccc3Nc3ccc(C(F)(F)F)cc3)o2)O1 (centres unmarked) [Compound 13, 5-(5-(2-((4-(trifluoromethyl)phenyl)amino)phenyl)-1,3,4-oxadiazol-2-yl)oxazolidin-2-one] | 0.1 to 1 µM
13 | CS(=O)(=O)c1nnc(-c2ccccc2Nc2ccc(C(F)(F)F)cc2)o1 [Compound 71, 2-(5-(methylsulfonyl)-1,3,4-oxadiazol-2-yl)-N-(4-(trifluoromethyl)phenyl)aniline] | 0.1 to 1 µM
14 | CC(C)NCCc1nnc(-c2ccccc2Nc2ccc(C(F)(F)F)cc2)o1 [Compound 91, 2-(5-(2-(isopropylamino)ethyl)-1,3,4-oxadiazol-2-yl)-N-(4-(trifluoromethyl)phenyl)aniline] | 1 to 5 µM
15 | N#Cc1nnc(-c2ccccc2Nc2ccc(C(F)(F)F)cc2)o1 [Compound 22, 5-[2-[4-(trifluoromethyl)anilino]phenyl]-1,3,4-oxadiazole-2-carbonitrile] | < 0.1 µM
16 | CC(C)(C#N)Cc1nnc(-c2ccccc2Nc2ccc(C(F)(F)F)cc2)o1 [Compound 89, 2,2-dimethyl-3-(5-(2-((4-(trifluoromethyl)phenyl)amino)phenyl)-1,3,4-oxadiazol-2-yl)propanenitrile] | 0.1 to 1 µM
17 | FC(F)(F)c1ccc(Nc2ccccc2-c2nnc(-c3cocn3)o2)cc1 [Compound 36, 2-(5-(oxazol-4-yl)-1,3,4-oxadiazol-2-yl)-N-(4-(trifluoromethyl)phenyl)aniline] | 0.1 to 1 µM
18 | C#CC(C)(C)c1nnc(-c2ccccc2Nc2ccc(C(F)(F)F)cc2)o1 [Compound 68, 2-(5-(2-methylbut-3-yn-2-yl)-1,3,4-oxadiazol-2-yl)-N-(4-(trifluoromethyl)phenyl)aniline] | < 0.1 µM
19 | CC(C)(O)c1nnc(-c2ccccc2Nc2ccc(C(F)(F)F)cc2)o1 [Compound 42, 2-(5-(2-((4-(trifluoromethyl)phenyl)amino)phenyl)-1,3,4-oxadiazol-2-yl)propan-2-ol] | < 0.1 µM
20 | C#CCC(O)c1nnc(-c2ccccc2Nc2ccc(C(F)(F)F)cc2)o1 (centres unmarked) [Compound 124, 1-(5-(2-((4-(trifluoromethyl)phenyl)amino)phenyl)-1,3,4-oxadiazol-2-yl)but-3-yn-1-ol] | < 0.1 µM
21 | FC(F)(F)c1ccc(Nc2ccccc2-c2nnc(C3CCCO3)o2)cc1 (centres unmarked) [Compound 181, 2-(5-(tetrahydrofuran-2-yl)-1,3,4-oxadiazol-2-yl)-N-(4-(trifluoromethyl)phenyl)aniline] | 0.1 to 1 µM
22 | NC1(Cc2nnc(-c3ccccc3Nc3ccc(C(F)(F)F)cc3)o2)CC1 [Compound 136, 2-(5-((1-aminocyclopropyl)methyl)-1,3,4-oxadiazol-2-yl)-N-(4-(trifluoromethyl)phenyl)aniline] | 0.1 to 1 µM
23 | CN(C#N)C(C)(C)Cc1nnc(-c2ccccc2Nc2ccc(C(F)(F)F)cc2)o1 [Compound 143, N-methyl-N-(2-methyl-1-(5-(2-((4-(trifluoromethyl)phenyl)amino)phenyl)-1,3,4-oxadiazol-2-yl)propan-2-yl)cyanamide] | 1 to 5 µM
24 | CS(=O)(=O)N(CCO)c1nnc(-c2ccccc2Nc2ccc(C(F)(F)F)cc2)o1 [Compound 32, N-(2-hydroxyethyl)-N-(5-(2-((4-(trifluoromethyl)phenyl)amino)phenyl)-1,3,4-oxadiazol-2-yl)methanesulfonamide] | 0.1 to 1 µM
25 | CC1(c2nnc(-c3ccccc3Nc3ccc(C(F)(F)F)cc3)o2)COC1 [Compound 183, 2-(5-(3-methyloxetan-3-yl)-1,3,4-oxadiazol-2-yl)-N-(4-(trifluoromethyl)phenyl)aniline] | 0.1 to 1 µM
26 | CNCC(C)c1nnc(-c2ccccc2Nc2ccc(C(F)(F)F)cc2)o1 (centres unmarked) [Compound 150, 2-(5-(1-(methylamino)propan-2-yl)-1,3,4-oxadiazol-2-yl)-N-(4-(trifluoromethyl)phenyl)aniline] | 0.1 to 1 µM
27 | Cc1ccc(S(=O)(=O)OC2(c3nnc(-c4ccccc4Nc4ccc(C(F)(F)F)cc4)o3)CC2)cc1 [Compound 53, 1-(5-(2-((4-(trifluoromethyl)phenyl)amino)phenyl)-1,3,4-oxadiazol-2-yl)cyclo propyl 4-methylbenzenesulfonate] | 0.1 to 1 µM
28 | CC(C)(C)OC(=O)N1C(=O)OCC1c1nnc(-c2ccccc2Nc2ccc(C(F)(F)F)cc2)o1 (centres unmarked) [Compound 26] | < 0.1 µM

Same assay, conditions: Homo sapiens, HEK-293T; […]; 24-hr incubation; top concentration 3 μM; read-out: Firefly Luciferase IC50

Row | Compound | IC50
29 | OC(c1nnc(-c2ccccc2Nc2ccc(C(F)(F)F)cc2)o1)C1CC1 (centres unmarked) [Compound 49, cyclopropyl(5-(2-((4-(trifluoromethyl)phenyl)amino)phenyl)-1,3,4-oxadiazol-2-yl)methanol] | < 0.1 µM
